Active and inactive are the calls of the source.
Experiments:
Cytochrome P450 2C9 = Cytochrome P450 2C9 (Homo sapiens, UniProt P11712)
Cytochrome P450 2C19 = Cytochrome P450 2C19 (Homo sapiens, UniProt P33261); test: Cytochrome panel assay with activity outcomes. Panel member name: p450-cyp2c19 Compounds with AC50 equal or less than 10 uM are considered active; type: functional
Cytochrome P450 3A4 = Cytochrome P450 3A4 (Homo sapiens, UniProt P08684);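 note: CYP3A4 tested as one member of a cytochrome P450 panel screen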
Cytochrome P450 1A2 = target: T1, Cytochrome P450 1A2 (Homo sapiens, UniProt P05177);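 note: PubChem cytochrome P450 panel assay, CYP1A2 panel member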
T1 sequence (P05177 whole entry): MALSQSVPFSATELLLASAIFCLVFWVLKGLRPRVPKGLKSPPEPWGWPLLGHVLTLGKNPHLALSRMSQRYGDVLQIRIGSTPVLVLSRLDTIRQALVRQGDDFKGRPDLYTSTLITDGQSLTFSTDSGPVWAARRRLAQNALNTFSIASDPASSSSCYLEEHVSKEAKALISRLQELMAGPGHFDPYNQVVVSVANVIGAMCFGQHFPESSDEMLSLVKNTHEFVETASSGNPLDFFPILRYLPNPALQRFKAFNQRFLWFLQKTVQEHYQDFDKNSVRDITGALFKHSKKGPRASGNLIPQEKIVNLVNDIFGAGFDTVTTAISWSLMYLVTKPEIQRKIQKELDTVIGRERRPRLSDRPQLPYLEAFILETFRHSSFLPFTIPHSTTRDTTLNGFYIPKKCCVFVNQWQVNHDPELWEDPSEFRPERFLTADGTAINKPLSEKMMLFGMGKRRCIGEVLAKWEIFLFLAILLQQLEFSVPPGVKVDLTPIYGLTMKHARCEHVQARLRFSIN

Cytochrome P450 2D6 = Cytochrome P450 2D6 (Homo sapiens, UniProt P10635);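 note: CYP2D6 member of a cytochrome P450 panel assay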
[1] = target: T2, Heat shock factor protein 1 (Mus musculus, UniProt P38532); test: enhancement of HSF1-driven luciferase signal – cell-based, NIH3T3, luminescence, dose retest, confirmation (AID 435004); type: functional;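 note: stress induced by proteasome inhibitor MG132 added 30 min after compound; luciferase reporter driven by HSF1 response element in NIH3T3 cells; actives raise luminescence as potentiators of the MG132 stress response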
T2 sequence (P38532 whole entry): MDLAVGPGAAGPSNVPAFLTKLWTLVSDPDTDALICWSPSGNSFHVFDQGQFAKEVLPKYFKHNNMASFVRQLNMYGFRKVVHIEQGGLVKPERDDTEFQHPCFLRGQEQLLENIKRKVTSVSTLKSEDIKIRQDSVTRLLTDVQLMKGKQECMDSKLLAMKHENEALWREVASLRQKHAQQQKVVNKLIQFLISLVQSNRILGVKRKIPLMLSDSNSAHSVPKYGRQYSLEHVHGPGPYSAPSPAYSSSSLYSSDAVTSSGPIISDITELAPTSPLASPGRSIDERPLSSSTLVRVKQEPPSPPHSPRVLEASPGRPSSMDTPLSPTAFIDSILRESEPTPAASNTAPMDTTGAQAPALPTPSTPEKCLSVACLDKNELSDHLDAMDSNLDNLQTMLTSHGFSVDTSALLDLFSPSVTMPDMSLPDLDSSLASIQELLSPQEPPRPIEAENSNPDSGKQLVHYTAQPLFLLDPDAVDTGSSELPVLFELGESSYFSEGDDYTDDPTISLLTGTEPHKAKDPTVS

[2] = Luminescence Cell-Based Dose Confirmation HTS to Identify Activators of 5'UTR Stem-Loop Driven Alpha-Synuclein mRNA Translation in H4 Neuroglioblastoma Cells. [Related pubchem assays: 1829 (Project Summary), 1814 (Primary HTS)]; type: functional
[3] = Luminescence Cell-Based Dose Response HTS to Identify Activators of Luciferase Translation or Activity in H4 […] Cells. [Related pubchem assays: 1829 (Project Summary), 1814 (Primary HTS)]; type: functional
H4 = test: Luminescence Cell-Based Dose Response HTS to Identify Activators of 5'UTR Stem-Loop Driven Prion Protein mRNA Translation in H4 Neuroglioblastoma Cells. [Related pubchem assays: 1829 (Project Summary), 1814 (Primary HTS)]; type: functional; conditions: Homo sapiens

Cytochrome P450 3A4, sequence (P08684 whole entry): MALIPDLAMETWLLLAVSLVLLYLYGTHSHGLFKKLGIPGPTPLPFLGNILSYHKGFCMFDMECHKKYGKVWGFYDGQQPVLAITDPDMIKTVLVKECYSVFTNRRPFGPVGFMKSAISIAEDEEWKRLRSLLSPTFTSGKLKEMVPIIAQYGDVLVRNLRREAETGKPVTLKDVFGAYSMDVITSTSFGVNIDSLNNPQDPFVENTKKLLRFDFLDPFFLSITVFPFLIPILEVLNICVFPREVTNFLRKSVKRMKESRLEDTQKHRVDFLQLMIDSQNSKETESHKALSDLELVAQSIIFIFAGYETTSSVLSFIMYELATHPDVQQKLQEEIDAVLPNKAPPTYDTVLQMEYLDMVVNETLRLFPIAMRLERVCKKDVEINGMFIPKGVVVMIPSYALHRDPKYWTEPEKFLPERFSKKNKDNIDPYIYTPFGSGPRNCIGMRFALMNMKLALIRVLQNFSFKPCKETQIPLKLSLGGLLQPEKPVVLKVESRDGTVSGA
Cytochrome P450 2D6, sequence (P10635 whole entry): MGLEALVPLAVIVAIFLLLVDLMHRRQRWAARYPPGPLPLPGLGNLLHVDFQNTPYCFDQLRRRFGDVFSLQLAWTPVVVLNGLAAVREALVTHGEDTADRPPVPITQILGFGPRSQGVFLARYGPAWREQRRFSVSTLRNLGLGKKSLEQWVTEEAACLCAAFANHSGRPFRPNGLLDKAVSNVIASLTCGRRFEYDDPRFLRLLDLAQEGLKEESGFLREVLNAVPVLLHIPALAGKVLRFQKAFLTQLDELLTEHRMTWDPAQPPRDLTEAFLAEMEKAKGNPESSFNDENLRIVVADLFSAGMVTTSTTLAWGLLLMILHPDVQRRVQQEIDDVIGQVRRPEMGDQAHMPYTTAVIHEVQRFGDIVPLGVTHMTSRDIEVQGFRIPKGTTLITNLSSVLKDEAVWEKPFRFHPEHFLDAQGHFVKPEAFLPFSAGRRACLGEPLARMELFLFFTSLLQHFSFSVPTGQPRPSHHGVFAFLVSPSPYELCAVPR
Cytochrome P450 2C19, sequence (P33261 whole entry): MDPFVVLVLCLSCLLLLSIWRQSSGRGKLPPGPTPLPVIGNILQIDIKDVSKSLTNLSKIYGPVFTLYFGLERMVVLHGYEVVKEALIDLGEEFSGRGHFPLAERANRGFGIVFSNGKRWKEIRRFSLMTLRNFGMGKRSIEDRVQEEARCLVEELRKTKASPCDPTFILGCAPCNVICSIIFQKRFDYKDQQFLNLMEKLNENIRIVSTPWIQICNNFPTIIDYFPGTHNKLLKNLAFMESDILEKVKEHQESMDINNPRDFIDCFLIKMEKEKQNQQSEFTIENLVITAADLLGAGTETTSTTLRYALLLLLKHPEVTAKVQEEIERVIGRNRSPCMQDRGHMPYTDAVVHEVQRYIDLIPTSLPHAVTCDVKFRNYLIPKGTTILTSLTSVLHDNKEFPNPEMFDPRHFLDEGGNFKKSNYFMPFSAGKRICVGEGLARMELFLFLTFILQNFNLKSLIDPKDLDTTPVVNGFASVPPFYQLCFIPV
Cytochrome P450 2C9, sequence (P11712 whole entry): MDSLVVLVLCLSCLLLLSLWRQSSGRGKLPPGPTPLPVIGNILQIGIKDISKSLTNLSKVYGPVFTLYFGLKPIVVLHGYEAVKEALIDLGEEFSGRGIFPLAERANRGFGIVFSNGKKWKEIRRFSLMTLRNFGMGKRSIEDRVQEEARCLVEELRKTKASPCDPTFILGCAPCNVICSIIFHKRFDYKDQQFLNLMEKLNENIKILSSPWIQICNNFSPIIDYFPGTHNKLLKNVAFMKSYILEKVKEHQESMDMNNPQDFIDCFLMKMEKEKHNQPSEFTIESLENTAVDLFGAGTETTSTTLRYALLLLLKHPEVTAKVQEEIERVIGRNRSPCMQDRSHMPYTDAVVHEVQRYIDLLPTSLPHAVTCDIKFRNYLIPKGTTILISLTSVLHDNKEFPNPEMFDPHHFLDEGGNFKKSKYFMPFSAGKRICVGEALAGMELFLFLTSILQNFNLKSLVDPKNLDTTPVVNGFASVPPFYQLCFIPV

With `CNC(=O)c1cc2c(cn1)[nH]c1ccccc12` the AC50 (Cytochrome P450 2C9) was 31.6 µM (inconclusive), the AC50 (Cytochrome P450 2C19) was “inconclusive” and the AC50 (Cytochrome P450 3A4) was 39.8 µM (inconclusive).

For `O=c1[nH]ncc2c3ccccc3n(Cc3ccccc3)c12`, the AC50 (Cytochrome P450 2C9) was 2 µM (inconclusive) and the AC50 (Cytochrome P450 2C19; read-out: AC50) was 2.51 µM (inconclusive).

For `CCOC(=O)c1ccccc1NC(=O)CSc1cccc[n+]1[O-]`, the AC50 (Cytochrome P450 2C19; read-out: AC50) was 22.4 µM (inconclusive) and the AC50 (Cytochrome P450 1A2) was 25.1 µM (inconclusive).

In the case of `COc1ccccc1-c1cncnc1-n1ccnc1`, the AC50 (Cytochrome P450 2D6) is reported as 25.1 µM (inconclusive) and the AC50 (Cytochrome P450 2C19; read-out: AC50) is reported as 25.1 µM (inconclusive).

With `CSc1sc(C(=O)OC(C)C)c2c1C(=O)CC(C)(C)C2` the EC50 [1] was > 260 µM (inactive).

In the case of `COC(=O)C1(Cc2ccccc2)C=C2C(=C(C(C)C)C(=O)C2C)CN1` (stereo not drawn), the AC50 (Cytochrome P450 2C9) is reported as 31.6 µM (inconclusive), the AC50 (Cytochrome P450 2C19; read-out: AC50) is reported as 39.8 µM (inconclusive) and the AC50 (Cytochrome P450 1A2) is reported as 15.8 µM (inconclusive).

With `NC(=O)C1CC(=O)N(c2ccc(OCc3ccc(Cl)cc3)cc2)C1` (stereo not drawn) the EC50 [2] was 19.2 µM (active) and the EC50 [3] was 42.6 µM (active).

In the case of `CC1(CCC#N)N=C(SCCC#N)N(c2ccccc2)C1=O` (stereo not drawn), the AC50 (Cytochrome P450 2C19; read-out: AC50) is reported as 25.1 µM (inconclusive).

For `CC(=O)N1c2ccc(C)cc2C(c2ccccc2)CC1C` (stereo not drawn), the EC50 [1] was > 260 µM (inactive).

For `CC(C)=NOCc1cccc(-c2cc(-c3ccccc3)no2)c1`, the AC50 (Cytochrome P450 3A4) was 6.31 µM (inconclusive).

With `C(=C/c1ccccc1)/C=N/c1ccc2c(c1)Cc1ccccc1-2` the AC50 (Cytochrome P450 3A4) was 3.98 µM (inconclusive).

With `COc1ccc(C2SCC(=O)Nc3c2c(C)nn3-c2ccccc2)cc1OC` (stereo not drawn) the AC50 (Cytochrome P450 1A2) was 22.4 µM (inconclusive) and the AC50 (Cytochrome P450 3A4) was 12.6 µM (inconclusive).

With `CC(C)CN1CCC2(CC1)CCN(C(=O)c1cccn1C)CC2` the AC50 (Cytochrome P450 2D6) was 12.6 µM (inconclusive).

With `CS(=O)(=O)Nc1cccc(-c2nc(NCc3cccnc3)c3ccccc3n2)c1` the AC50 (Cytochrome P450 2C9) was 1 µM (inconclusive).

With `O=C1c2ccccc2C(=O)c2c1ccc(C(=O)O)c2-c1ccc2ccccc2c1` the AC50 (Cytochrome P450 2D6) was 7.94 µM (inconclusive) and the AC50 (Cytochrome P450 1A2) was 1.26 µM (inconclusive).

In the case of `N#Cc1ccc(Cl)cc1NC(=O)CNCc1cccs1`, the EC50 [1] is reported as > 260 µM (inactive).

In the case of `CCCc1ccc(NC(=O)C2CCCN(c3cnccn3)C2)cc1` (stereo not drawn), the EC50 [1] is reported as > 260 µM (inactive).

For `Cc1ccc(C(=O)NCCCN2CCOCC2)cc1N1CCCC1=O`, the AC50 (Cytochrome P450 2C9) was 1.26 µM (inconclusive).

With `CC(C)(C)c1ccc(OCC(=O)NN2Cc3ccccc3C2=N)cc1` the EC50 [1] was > 260 µM (inactive).

In the case of `CCCCCCCCCCCCC/C=C\[C@@H](O)[C@@H](N)CO`, the AC50 (Cytochrome P450 2C9) is reported as 39.8 µM (inconclusive) and the AC50 (Cytochrome P450 2C19; read-out: AC50) is reported as 25.1 µM (inconclusive).

For `CC(Sc1nncn1C)C(=O)Nc1nnc(-c2ccccc2)s1` (stereo not drawn), the EC50 [2] was 19.1 µM (active), the EC50 [3] was 25 µM (active) and the EC50 (H4) was 17.5 µM (active).

For `CC(=O)NN1C(=O)/C(=C\c2ccc(C)cc2)SC1=S`, the AC50 (Cytochrome P450 2C9) was 28.2 µM (inconclusive).

In the case of `CN(C)c1ncc2nc(-c3ccc(Cl)cc3)c(=O)n(-c3ccccc3)c2n1`, the AC50 (Cytochrome P450 2D6) is reported as 0.631 µM (inconclusive) and the AC50 (Cytochrome P450 1A2) is reported as 5.01 µM (inconclusive).

In the case of `COc1ccccc1CN1CCCC2(CCN(C(=O)c3ccncc3)CC2)C1`, the AC50 (Cytochrome P450 2C9) is reported as 20 µM (inconclusive) and the AC50 (Cytochrome P450 1A2) is reported as 20 µM (inconclusive).

With `COC(=O)[C@@]1(Cc2ccccc2)[C@H]2c3cc(C(=O)N4CCCC4)n(Cc4cc(F)cc5c4OCOC5)c3C[C@H]2CN1C(=O)c1ccccc1` the AC50 (Cytochrome P450 2D6) was 10 µM (inconclusive).

For `CCCCNc1nc(SC)nc2[nH]cnc12`, the AC50 (Cytochrome P450 2D6) was 2.51 µM (inconclusive), the AC50 (Cytochrome P450 2C19; read-out: AC50) was 3.16 µM (inconclusive) and the AC50 (Cytochrome P450 3A4) was 3.16 µM (inconclusive).

In the case of `CCOc1ccc(C)cc1S(=O)(=O)NC1CCCCC1`, the EC50 [1] is reported as > 260 µM (inactive).

For `COCCn1c(=O)c(-c2ccc(Cl)cc2)nc2cncnc21`, the AC50 (Cytochrome P450 2C9) was 31.6 µM (inconclusive), the AC50 (Cytochrome P450 2C19; read-out: AC50) was 39.8 µM (inconclusive) and the AC50 (Cytochrome P450 3A4) was 12.6 µM (inconclusive).

For `Cc1ccc(C)c(NC(=O)CS(=O)(=O)c2cn(C)c3ccccc23)c1`, the EC50 [1] was > 260 µM (inactive).
